Consider 6 compounds from paper PMC6270845, “Fluorescent Probes for Insect Ryanodine Receptors: Candidate Anthranilic Diamides” (Molecules, 2014).

The target in data set [1] is T1, house fly thoracic muscle RyR (Musca domestica, UniProt A0A9J7DBA3). More on the design: method as in PMID 22856329. The conditions noted are these: read-out: Stimulation of [3H]Ry binding (EC50), reported value; cited from earlier work.
The target of data set [2] is T1, house fly thoracic muscle RyR. On the set-up: method as in PMID 22856329. The conditions noted are these: read-out: Inhibition of [3H]Chlo binding (IC50), reported value; cited from earlier work.
Data set [3] concerns Plutella larvae. The experiment in a line: Insecticidal activity, leaf-dip bioassay. The conditions noted are these: fourth instar larvae, cabbage leaf-dip, mortality after 96 h.
Data set [4] has as its target T1, house fly thoracic muscle RyR. Put plainly: Stimulation of [3H]Ry binding in Musca RyR radioligand assay. The conditions noted are these: Musca muscle membrane, 1 nM [3H]Ry, 2 h at 37 °C. On the procedure:
(§1) [^3H]Ry (95 Ci/mmol, Perkin-Elmer Life Sciences, Boston, MA, USA) and [^3H]Chlo (78 Ci/mmol) were used in RyR binding assays with house fly thorax muscle membranes as reported earlier. Adults emerging from pupae obtained from Benzon Research (Carlisle, PA, USA) were used to collect the thoraces for membrane preparation. The following two buffers were used: (A) 10 μM phenylmethanesulfonyl fluoride, 0.8% bovine serum albumin, and 303 mM sucrose in 20 mM Tris-maleate, pH 7.0; and (B) 0.8 mM CaCl2, 2 mM ATP·Mg^2+ salt, and 1.5 M KCl in 10 mM Hepes, pH 7.4. Incubation mixtures were prepared by sequential addition to culture tubes of 200 μL of buffer B, 200 μL of buffer A containing thorax muscle membranes (200 μg protein) and then ethanol (5 μL) containing [^3H]Ry or [^3H]Chlo to give a final radioligand concentration of 1 nM. Finally, test compounds were added in 5 μL ethanol to give the specified concentrations of Fluor-Cl and Fluor-CN. Following incubation for 2 h at 37 °C, the mixtures were filtered through GF/B filters (Whatman, presoaked in ice-cold washing buffer) immediately after dilution with 5 mL of ice-cold washing buffer (150 mM KCl, 10 mM Hepes, pH 7.4). Each assay tube was further rinsed twice with 5 mL of ice-cold washing buffer, and the rinses were passed through the same filter. […] Binding data were analyzed and plotted by GraphPad Prism 5.0. […]

Data set [5] shares this target. The experiment in a line: Inhibition of [3H]Chlo binding in Musca RyR radioligand assay. The conditions noted are these: Musca muscle membrane, 1 nM [3H]Chlo, 2 h at 37 °C. On the procedure:
as §1

pEC50, pIC50: −log10 of the molar value. Where “and” joins values, the source holds several entries; their conditions need not be identical. Equal values may be shown once. Read-outs that look alike come from different tables or passages of the source.

As for `CNC(=O)c1cc(Cl)cc(C)c1NC(=O)c1cc(Br)nn1-c1ncccc1Cl` [Chlo, chlorantraniliprole], in data set [1], the pEC50 (in general, −log10 of the EC50, conventionally taken in molar units) was 7.82 to 8.52. The pIC50 (as a rule, the negative decadic logarithm of the IC50, by convention in mol/L) in data set [2] is 7.85 to 8.22. For the same compound, the “LC50 (95%CL)” value in data set [3] was 0.033(0.006–0.059) ppm.

For `CNC(=O)c1cc(C#N)cc(C)c1NC(=O)c1cc(Br)nn1-c1ncccc1Cl` [Cyan, cyantraniliprole], in data set [1], the pEC50 is 7.82 to 8.52. For the same compound, the pIC50 in data set [2] was 7.85 to 8.22. In data set [3], the “LC50 (95%CL)” value is recorded as 0.061(0.035–0.086) ppm.

On to `Cc1cc(C(F)(C(F)(F)F)C(F)(F)F)ccc1NC(=O)c1cccc(I)c1C(=O)NC(C)(C)CS(C)(=O)=O` [Flu, flubendiamide, reference compound], for which the “LC50 (95%CL)” value in data set [3] is 0.056(0.037–0.068) ppm.

As for `Cc1cc(C#N)cc(C(=O)NCc2cn(-c3cc4ccc(O)cc4oc3=O)nn2)c1NC(=O)c1cc(Br)nn1-c1ncccc1Cl` [Fluor-CN, 3-Bromo-1-(3-chloropyridin-2-yl)-N-(4-cyano-2-((1-(7-hydroxy-2-oxo-2H-chromen-3-yl)-1H-1,2,3-triazol-4-yl)methylcarbamoyl)-6-methylphenyl)-1H-pyrazole-5-carboxamide], the negative-log EC50 (pEC50) in data set [4] is 8.15 to 8.30 and 8.30. Moreover, in data set [5], the pIC50 is 7.41 to 7.47 and 7.41. For the same compound, the “LC50 (95%CL)” value in data set [3] was 7.57(4.57–11.77) ppm.

`C#CCNC(=O)c1cc(C#N)cc(C)c1NC(=O)c1cc(Br)nn1-c1ncccc1Cl` [Prop-CN, 3-bromo-N-(4-cyano-2-methyl-6-(prop 2-ynylcarbamoyl)phenyl)-1-(3-chloropyridin-2-yl)-1H-pyrazole-5-carboxamide]: in data set [3], the “LC50 (95%CL)” value is 0.34(0.24–0.43) ppm.

As for `C#CCNC(=O)c1cc(Cl)cc(C)c1NC(=O)c1cc(Br)nn1-c1ncccc1Cl` [Prop-Cl, 3-Bromo-N-(4-chloro-2-methyl-6-(prop-2-ynylcarbamoyl)phenyl)-1-(3-chloropyridin-2-yl)-1H-pyrazole-5-carboxamide], the “LC50 (95%CL)” value in data set [3] was 0.080(0.024–0.152) ppm.
